Laboratory results as given in DBAASP.
Values after ≈ are worked out from the molar mass of the structure shown. Values joined by “and” are separate entries in the source; they are usually repeats but may differ in a detail not shown here. Identical values can stand only once.

Tests used:
Assay in all cases: ≥ marks a high value that may be exact or a test limit, other limits are often not marked, values filed in µg/mL are converted to µM
[1] = test system: Escherichia coli ATCC 9637
[2] = test system: Staphylococcus aureus ATCC 29213
[3] = test system: Klebsiella pneumoniae ATCC 27736
[4] = test system: Staphylococcus aureus ATCC 33592
[5] = test system: Staphylococcus aureus ATCC BAA-44
[6] = test system: Staphylococcus aureus ATCC 700699
[7] = test system: Staphylococcus aureus ATCC 25923
[8] = test system: Bacillus subtilis ATCC 6633
[9] = test system: Candida parapsilosis ATCC 22019
[10] = test system: Pseudomonas aeruginosa ATCC BAA-427
[11] = test system: Candida albicans ATCC 10231
[12] = test system: Cryptococcus neoformans
[13] = test system: Staphylococcus aureus ATCC 700698
[14] = test system: Bacillus subtilis NRRL B-237
[15] = test system: Bacillus megaterium QMB 1551
[16] = test system: Escherichia coli NCTC 9001
[17] = test system: Agrobacterium tumefaciens DSM 3129
[18] = test system: Shigella flexneri CP87
[19] = test system: Clavibacter michiganensis subsp. insidiosus NCPPB 1109
[20] = test system: Brenneria salicis NCPPB 2530
[21] = test system: Serratia marcescens ATCC 17991
[22] = test system: Paenibacillus alvei LMG 6922
[23] = test system: Bacillus thuringiensis serovar tenebrionis DSM 2803
[24] = test system: Pseudomonas syringae pv. tomato NCPPB 1106
[25] = test system: Salmonella typhimurium ATCC 23565
[26] = test system: Sinorhizobium meliloti ZB314
[27] = test system: Salmonella enterica subsp. enterica serovar Newport
[28] = test system: Escherichia coli DSM 1116
[29] = test system: Bacillus subtilis DSM 347
[30] = test system: Franconibacter helveticus DSM 18390
[31] = test system: Staphylococcus xylosus DSM 20267
[32] = test system: Escherichia coli ATCC 8739
[33] = test system: Acinetobacter baumannii ATCC 17978
[34] = test system: Staphylococcus aureus HNCMO 112011
[35] = test system: Salmonella enterica subsp. enterica serovar Typhimurium ATCC 14028
[36] = test system: Salmonella enterica subsp. enterica CMCC 47020
[37] = test system: Salmonella enterica subsp. enterica serovar Typhimurium C77-31
[38] = test system: Bacillus cereus CMCC 6303
[39] = test system: Salmonella enterica subsp. enterica serovar Pullorum C79-13
[40] = test system: Cronobacter sakazakii ATCC 29544
[41] = test system: Listeria monocytogenes CMCC 54004
[42] = test system: Escherichia coli UB1005
[43] = test system: Salmonella enterica subsp. enterica serovar Typhi CMCC 50071
[44] = test system: Staphylococcus aureus CMCC 26074
[45] = test system: Candida albicans ATCC MYA-2876
[46] = test system: Candida tropicalis ATCC 750

CC[C@H](C)[C@H](NC(=O)[C@H](CCCN=C(N)N)NC(=O)CNC(=O)[C@H](CC(C)C)NC(=O)[C@H](CCCCN)NC(=O)[C@H](CCCCN)NC(=O)[C@H](CO)NC(=O)[C@H](Cc1ccccc1)NC(=O)[C@H](Cc1c[nH]c2ccccc12)NC(=O)[C@H](CCCCN)NC(=O)[C@@H](NC(=O)[C@@H](N)Cc1ccccc1)C(C)C)C(=O)N[C@@H](CC(C)C)C(N)=O [FVKWFSKKLGRIL]
MIC [1]: 12.5 µM (≈ 20.3 µg/mL) | MIC [2]: > 30 µM | MIC [3]: 15 µM (≈ 24.3 µg/mL) | MIC [4]: 30 µM (≈ 48.6 µg/mL) | MIC [5]: 30 µM (≈ 48.6 µg/mL) | MIC [6]: 30 µM (≈ 48.6 µg/mL) | MIC [7]: 25 µM and 30 µM and 15.4 µM | MIC [8]: 15.2 µM (≈ 24.6 µg/mL) | MIC [9]: 30 µM (≈ 48.6 µg/mL) | MIC [10]: 15 µM (≈ 24.3 µg/mL) | MIC [11]: 30 µM (≈ 48.6 µg/mL) | MIC [12]: 15 µM (≈ 24.3 µg/mL) | MIC [13]: 30 µM (≈ 48.6 µg/mL)

CC[C@H](C)[C@H](NC(=O)[C@@H]1CCCN1C(=O)[C@H](CCCN=C(N)N)NC(=O)[C@H](CC(N)=O)NC(=O)[C@H](CC(N)=O)NC(=O)CN)C(=O)N[C@@H](Cc1ccc(O)cc1)C(=O)N[C@H](C(=O)N1CCC[C@H]1C(=O)N[C@@H](CCC(N)=O)C(=O)N1CCC[C@H]1C(=O)N[C@@H](CCCN=C(N)N)C(=O)N1CCC[C@H]1C(=O)N1CCC[C@H]1C(=O)N[C@@H](Cc1cnc[nH]1)C(=O)N1CCC[C@H]1C(=O)N[C@@H](CCCN=C(N)N)C(=O)N[C@@H](CC(C)C)C(=O)O)[C@@H](C)CC [GNNRPIYIPQPRPPHPRL]
MIC [14]: ≥ 94.2 µM | MIC [15]: ≥ 47.1 µM | MIC [16]: 0.0942 µM (≈ 0.2 µg/mL) | MIC [17]: 0.0942 µM (≈ 0.2 µg/mL) | MIC [18]: 0.0471 µM (≈ 0.1 µg/mL) | MIC [19]: ≥ 47.1 µM | MIC [20]: 0.0094 µM (≈ 0.02 µg/mL) | MIC [21]: ≥ 94.2 µM | MIC [22]: ≥ 94.2 µM | MIC [23]: ≥ 94.2 µM | MIC [24]: 0.0471 µM (≈ 0.1 µg/mL) | MIC [25]: 0.0471 µM (≈ 0.1 µg/mL) | MIC [26]: 0.0094 µM (≈ 0.02 µg/mL) | MIC [27]: 0.0942 µM (≈ 0.2 µg/mL)

CC(C)C[C@H](NC(=O)[C@H](CCCCN)NC(=O)[C@H](CC(C)C)NC(=O)[C@H](CCCCN)NC(=O)[C@H](CC(C)C)NC(=O)[C@@H](N)CCCCN)C(N)=O [KLKLKL]
MIC [28]: ≥ 345 µM | MIC [29]: ≥ 345 µM | MIC [30]: ≥ 345 µM | MIC [31]: ≥ 345 µM

CC(C)C[C@H](NC(=O)[C@@H]1CCCN1C(=O)[C@H](CCCN=C(N)N)NC(=O)[C@H](CCCN=C(N)N)NC(=O)[C@H](CS)NC(=O)[C@H](CCC(N)=O)NC(=O)[C@@H](N)CCC(N)=O)C(=O)N[C@@H](Cc1ccc(O)cc1)C(=O)N[C@@H](CS)C(=O)N[C@@H](CCCN=C(N)N)C(=O)N[C@@H](CCCN=C(N)N)C(=O)N[C@@H](CCCN=C(N)N)C(=O)N[C@@H](Cc1c[nH]c2ccccc12)C(=O)N[C@@H](CO)C(=O)N[C@@H](Cc1cnc[nH]1)C(=O)N1CCC[C@H]1C(=O)N[C@@H](CCC(N)=O)C(=O)N[C@@H](Cc1ccccc1)C(=O)N[C@@H](CCC(=O)O)C(=O)N[C@@H](CCCCN)C(=O)O [QQCRRPLYCRRRWSHPQFEK]
MIC [32]: 25 µM (≈ 66.9 µg/mL) | MIC [33]: 25 µM (≈ 66.9 µg/mL) | MIC [34]: 25 µM (≈ 66.9 µg/mL)

CC[C@H](C)[C@H](NC(=O)[C@H](CCCN=C(N)N)NC(=O)[C@H](CCCN=C(N)N)NC(=O)[C@H](Cc1c[nH]c2ccccc12)NC(=O)[C@@H](N)CCCN=C(N)N)C(=O)N[C@H](C(=O)N[C@H](C(=O)N[C@H](C(=O)N[C@@H](CCCN=C(N)N)C(=O)N[C@H](C(=O)N[C@@H](CCCN=C(N)N)C(=O)N[C@@H](CCCN=C(N)N)C(N)=O)C(C)C)[C@@H](C)CC)C(C)C)C(C)C [RWRRIVVIRVRR]
MIC [35]: 32 µM (≈ 53.3 µg/mL) | MIC [36]: ≥ 128 µM | MIC [37]: ≥ 32 µM | MIC [38]: ≥ 64 µM | MIC [7]: 256 µM (≈ 426 µg/mL) | MIC [39]: ≥ 32 µM | MIC [40]: 16 µM (≈ 26.6 µg/mL) | MIC [41]: 2 µM (≈ 3.33 µg/mL) | MIC [42]: 16 µM (≈ 26.6 µg/mL) | MIC [43]: 8 µM (≈ 13.3 µg/mL) | MIC [44]: ≥ 64 µM

CC[C@H](C)[C@H](NC(=O)[C@H](Cc1ccc(O)cc1)NC(=O)[C@@H](N)CCCN=C(N)N)C(=O)N[C@@H](Cc1ccc(O)cc1)C(=O)N[C@@H](CC(C)C)C(=O)N[C@@H](CO)C(=O)NCC(=O)N[C@H](C(=O)N[C@@H](CC(=O)O)C(=O)N[C@@H](CCCN=C(N)N)C(=O)N[C@H](C(=O)N[C@H](C(=O)N[C@@H](CCCN=C(N)N)C(=O)N[C@@H](C)C(=O)N[C@@H](CCCCN)C(=O)N[C@@H](CC(C)C)C(=O)NCC(=O)N[C@@H](CCCCN)C(=O)O)[C@@H](C)CC)[C@@H](C)CC)[C@@H](C)O [RYIYLSGTDRIIRAKLGK]
MIC [45]: ≥ 40 µM | MIC [46]: ≥ 40 µM
